# Test results taken from patent US10434135B2, “Pharmaceutical composition for preventing or treating arthritis” (Samsung Life Public Welfare Foundation, priority 2015, dated 2019).
# Ends that are not written are not given here.
# Conditions: rat, in vivo
# From the text: The stained samples were examined under a fluorescence microscope (Eclipse TE2000U) at 200× magnification and photographed from 4 randomly selected areas. Then, the images with specific expressions were processed using the imageJ program and then quantified.
sequence,measurement,value
KLDLKLDLKLDLRPKPQQFFGLM [KLD12-SP],substance P retained in the knee joints,retained in the knee joints of rats
